According to patent US8343475B2, “Small cationic antimicrobial peptides” (priority 2006, dated 2013):
Converted amounts (≈) assume the structure as drawn. Residues, ends and D or L forms follow the SMILES beside them. No end group written: not given here.

Key:
Format in all cases: cell-based
[1] = tested on: MCP-1 release by human PBMC; experiment: Chemokine induction in PBMC (capture ELISA); conditions: background (204) subtracted
Description: FIG. 15. Induction of MCP-1 release by 7.5×10^5 human PBMC in response to treatment with 20 or 100 μg/ml of different peptides for 24 hours.
(§1) Venous blood (20 ml) from healthy volunteers was collected in Vacutainer® collection tubes containing sodium heparin as an anticoagulant (Becton Dickinson, Mississauga, ON) in accordance with UBC ethical approval and guidelines. Blood was diluted 1:1 with complete RPMI 1640 medium and separated by centrifugation over a Ficoll-Paque® Plus (Amersham Biosciences, Piscataway, N.J., USA) density gradient. White blood cells were isolated from the buffy coat, washed twice in RPMI 1640 complete medium, and the number of peripheral blood mononuclear cells (PBMC) was determined by trypan blue exclusion. PBMC (5×10^5) were seeded into 12-well tissue culture dishes (Falcon; Becton Dickinson) at 0.75 to 1×10^6 cells/ml at 37° C. in 5% CO2. The above conditions were chosen to mimic conditions for circulating blood monocytes entering tissues at the site of infection via extravasation.
(§2) Following incubation of the cells under various treatment regimens, the tissue culture supernatants were centrifuged at 1000×g for 5 min, then at 10,000×g for 2 min to obtain cell-free samples. Supernatants were aliquoted and then stored at −20° C. prior to assay for various chemokines by capture ELISA (eBioscience and BioSource International Inc., CA, USA respectively)

[2] = tested on: MCP-3 release by human PBMC; experiment: Chemokine induction in PBMC (capture ELISA); conditions: background (6) subtracted
Description: FIG. 16. Induction of MCP3 release by 7.5×10^5 human PBMC in response to treatment with 20 or 100 μg/ml of different peptides for 24 hours.
as §1, §2

[3] = tested on: CXCL1 (Gro-α) release by human PBMC; experiment: Chemokine induction in PBMC (capture ELISA); conditions: background (196) subtracted
Description: FIG. 17. Induction of CXCL1 (Gro-α) release by 7.5×10^5 human PBMC in response to treatment with 20 or 100 μg/ml of different peptides for 24 hours.
as §1, §2

[4] = tested on: Pseudomonas aeruginosa PAO1 strain H103; conditions: for MIC: PAO1; for antimicrobial activity against P. aeruginosa PAO1 (in words): laboratory strain P. aeruginosa PAO1
Description: The biological activity of the peptides can be determined by standard methods known to those of skill in the art, such as “minimal inhibitory concentration (MIC)” assay described in the present examples, whereby the lowest concentration at which no change in OD is observed for a given period of time is recorded as MIC.
Minimal inhibitory concentration (MIC) determination. The MIC of the peptides were measured using a modified broth microdilution method in Mueller Hinton (MH) medium (Wu M, Hancock R E W. 1999. Interaction of the cyclic antimicrobial cationic peptide bactenecin with the outer and cytoplasmic membrane. J Biol Chem 274, 29-35). Briefly, the peptides were dissolved and stored in glass vials. The assay was performed in sterile 96-well polypropylene microtitre plates were used. Serial dilutions of the peptides to be assayed were performed in 0.01% acetic acid (Fisher) containing 0.2% bovine serum albumin (Boehringer Mannheim GmbH) at 10× the desired final concentration. Ten microlitres of the 10× peptides were added to each well of a 96-well polypropylene plate containing 90 μl of MH media per well. Bacteria were added to the plate from an overnight culture at 2-7×10^5 colony forming units/ml and incubated over night at 37° C. The MIC was taken as the concentration at which no growth was observed.
Strains. For the killing assay a mini-Tn5-lux mutant in Pseudomonas aeruginosa H103 was used. The strain is called H1001 and contains a fliC::luxCDABE transcriptional fusion resulting in constitutive expression of luciferase. The bacterial strains used for the antimicrobial activity assays included Escherichia coli UB1005 (F-, nalA37, metB1), a wild-type Salmonella enterica ssp. typhimurium (S. typhimurium), wild-type Pseudomonas aeruginosa PAO1 strain H103, Enterococcus faecalis ATCC29212, Staphylococcus aureus ATCC25923, and a clinical isolate of Staphylococcus epidermidis obtained from Dr. D. Speert (Department of Medicine, University of British Columbia). Antifungal activity was tested using a lab isolate of Candida albicans obtained from Dr. B. Dill (Department of Microbiology and Immunology, University of British Columbia).

Compound	Chemokine induction MCP-1 ([1]; 20 μg/ml peptide)	Chemokine induction MCP-1 ([1]; 100 μg/ml peptide)	Chemokine induction MCP-3 ([2]; 20 μg/ml peptide)	Chemokine induction MCP-3 ([2]; 100 μg/ml peptide)	Chemokine induction Gro-α ([3]; 20 μg/ml peptide)	Chemokine induction Gro-α ([3]; 100 μg/ml peptide)	MIC [4]	antimicrobial activity against P. aeruginosa PAO1 (in words) [4]
1038 (IVVRRVIRK) [compound 1038]	25 pg/mL	1552 pg/mL	0 pg/mL	41 pg/mL	12 pg/mL	518 pg/mL	–	–
1039 (IWVIRRVWR) [compound 1039]	603 pg/mL	2420 pg/mL	13 pg/mL	67 pg/mL	469 pg/mL	1717 pg/mL	–	–
1040 (FQVVKIKVR) [compound 1040]	74 pg/mL	1143 pg/mL	0 pg/mL	9 pg/mL	2 pg/mL	264 pg/mL	–	–
1042 (IVWIWRR) [compound 1042]	-7 pg/mL	12 pg/mL	3 pg/mL	3 pg/mL	44 pg/mL	9 pg/mL	–	–
1044 (RRWIVWI) [compound 1044]	1561 pg/mL	5024 pg/mL	115 pg/mL	261 pg/mL	1963 pg/mL	1545 pg/mL	–	–
1045 (RWWRIVI) [compound 1045]	-2 pg/mL	989 pg/mL	0 pg/mL	31 pg/mL	13 pg/mL	435 pg/mL	–	–
1046 (WIRVIRW) [compound 1046]	46 pg/mL	449 pg/mL	1 pg/mL	4 pg/mL	38 pg/mL	147 pg/mL	–	–
1047 (IIRRWWV) [compound 1047]	8 pg/mL	130 pg/mL	0 pg/mL	0 pg/mL	-1 pg/mL	-3 pg/mL	–	–
1048 (IRWVIRW) [compound 1048]	96 pg/mL	38 pg/mL	0 pg/mL	0 pg/mL	7 pg/mL	-11 pg/mL	–	–
CSCC[C@H](NC(=O)[C@H](CCCNC(=N)N)NC(=O)[C@H](Cc1c[nH]cn1)NC(=O)[C@H](CCCNC(=N)N)NC(=O)[C@H](CO)NC(=O)CNC(=O)[C@H](CCCNC(=N)N)NC(=O)[C@H](Cc1ccccc1)NC(=O)[C@H](C)N)C(N)=O [HHC152, AFRGSRHRM] (H-AFRGSRHRM-NH2; N-terminus assumed)	–	–	–	–	–	–	506 µM (≈ 565 µg/mL)	did not posses any antimicrobial activity
CSCC[C@H](NC(=O)CNC(=O)[C@H](Cc1c[nH]c2ccccc12)NC(=O)[C@H](CCCNC(=N)N)NC(=O)[C@H](CCCNC(=N)N)NC(=O)CN)C(=O)NCC(=O)N[C@H](C(=O)N[C@@H](CCCNC(=N)N)C(N)=O)C(C)C [HHC183, GRRWGMGVR] (H-GRRWGMGVR-NH2; N-terminus assumed)	–	–	–	–	–	–	360 µM (≈ 386 µg/mL)	did not posses any antimicrobial activity
CC(C)C[C@H](NC(=O)CNC(=O)[C@H](CCCCN)NC(=O)[C@H](CC(N)=O)NC(=O)[C@H](CCCNC(=N)N)NC(=O)[C@@H](N)CCC(N)=O)C(=O)N[C@@H](CCCNC(=N)N)C(=O)N[C@@H](Cc1c[nH]cn1)C(=O)N[C@@H](Cc1c[nH]cn1)C(N)=O [HHC186, QRNKGLRHH] (H-QRNKGLRHH-NH2; N-terminus assumed)	–	–	–	–	–	–	381 µM (≈ 436 µg/mL)	did not posses any antimicrobial activity
FRIRVRVIR (FRIRVRVIR-NH2) [compound 1030]	139 pg/mL	2075 pg/mL	1 pg/mL	35 pg/mL	10 pg/mL	674 pg/mL	–	–
LVRAIQVRAVIR (LVRAIQVRAVIR-NH2) [compound 1001]	516 pg/mL	2491 pg/mL	0 pg/mL	40 pg/mL	88 pg/mL	850 pg/mL	–	–
VIWIRWR (VIWIRWR-NH2) [compound 1041]	146 pg/mL	1218 pg/mL	7 pg/mL	53 pg/mL	110 pg/mL	450 pg/mL	–	–
VQLRIWVRR (VQLRIWVRR-NH2) [compound 1006]	392 pg/mL	3004 pg/mL	0 pg/mL	58 pg/mL	65 pg/mL	1245 pg/mL	–	–
WIVIWRR (WIVIWRR-NH2) [compound 1043]	98 pg/mL	1998 pg/mL	0 pg/mL	21 pg/mL	26 pg/mL	881 pg/mL	–	–
WRWRVRVWR (WRWRVRVWR-NH2) [compound 1031]	875 pg/mL	552 pg/mL	9 pg/mL	9 pg/mL	172 pg/mL	112 pg/mL	–	–
